Experimental data reported in patent publication US10202658B2, “Methods for determining hypersusceptibility of HIV-1 to non-nucleoside reverse transcriptase inhibitors” (Monogram Biosciences, Inc., priority 2005, dated 2019).

Experiments:
Format in all cases: cell-based
[1] = test system: HIV-1, RT mutations: K70R and 2 TAMs; assay: PhenoSense resistance test vector assay, clinical isolates with K70R and 2 TAMs; settings: share of samples designated hypersusceptible
Protocol: (§1) In preferred embodiments, the phenotypic analysis of NNRTI hypersusceptibility is performed using PHENOSENSE™ (ViroLogic Inc., South San Francisco, Calif.). See Petropoulos et al., 2000, Antimicrob. Agents Chemother. 44:920-928; U.S. Pat. Nos. 5,837,464 and 6,242,187. PHENOSENSE™ is a phenotypic assay that achieves the benefits of phenotypic testing and overcomes the drawbacks of previous assays. Because the assay has been automated, PHENOSENSE™ provides high throughput methods under controlled conditions for determining NNRTI resistance, susceptibility, or hypersusceptibility of a large number of individual viral isolates.
(§2) The assay can be performed by first co-transfecting host cells with RTV DNA and a plasmid that expresses the envelope proteins of another retrovirus, for example, amphotropic murine leukemia virus (MLV). Following transfection, viral particles can be harvested from the cell culture and used to infect fresh target cells in the presence of varying amounts of anti-viral drug(s). The completion of a single round of viral replication in the fresh target cells can be detected by the means for detecting replication contained in the vector. In a preferred embodiment, the completion of a single round of viral replication results in the production of luciferase. By monitoring the amount of, e.g., luciferase activity in the presence of the varying amounts of antiviral drug(s), a resistance curve can be constructed by plotting luciferase activity versus drug concentration. The susceptibility of an HIV, or population of HIV, can be determined by measuring the concentration of antiviral drug at which the luciferase activity detected is half-maximal. This number, the IC50, provides a standard and convenient measure of drug resistance.
(§3) Patient-derived segment(s) corresponding to the HIV protease and reverse transcriptase coding regions were amplified by the reverse transcription-polymerase chain reaction method (RT-PCR) using viral RNA isolated from viral particles present in the plasma or serum of HIV-infected individuals as follows. […]

[2] = test system: HIV-1, RT mutations: None; assay: PhenoSense resistance test vector assay, clinical isolates without NRTI, NNRTI or PI mutations (WT reference group); settings: share of samples designated hypersusceptible
Protocol: as §1, §2, §3

[3] = test system: HIV-1, RT mutations: 69X; assay: PhenoSense resistance test vector assay, clinical isolates with 69X; settings: share of samples designated hypersusceptible
Protocol: as §1, §2, §3

[4] = test system: HIV-1 NL4-3 SDM, L74V in reverse transcriptase; assay: NNRTI susceptibility of site-directed mutant (SDM) containing L74V in NL4-3 background; settings: relative to NL4-3
Protocol: as §1
as §2, with “By monitoring the amount of, e.g., luciferase activity in the presence of the varying amounts of antiviral drug(s), a resistance curve can be constructed by plotting luciferase activity versus drug concentration.” left out, “This number, the IC50, provides a standard and convenient measure of drug resistance.” left out
(§4) Resistance tests were carried out with resistance test vectors using two host cell types. […] The resistance test vector viral particles were then used to infect a second host cell (the target host cell) in which the expression of the indicator gene is measured.
(§5) The amount of luciferase activity detected in infected cells is used as a direct measure of “infectivity,” i.e., the ability of the virus to complete a single round of replication. Thus, drug resistance or sensitivity can be determined by plotting the amount of luciferase activity produced by patient derived viruses in the presence of varying concentrations of the antiviral drug. […]

[5] = test system: HIV-1, RT mutations: 2 NAMs; assay: PhenoSense resistance test vector assay, clinical isolates with 2 NAMs; settings: share of samples designated hypersusceptible
Protocol: as §1, §2, §3

[6] = test system: HIV-1, RT mutations: 1 NAM; assay: PhenoSense resistance test vector assay, clinical isolates with 1 NAM; settings: share of samples designated hypersusceptible
Protocol: as §1, §2, §3

[7] = test system: HIV-1, RT mutations: T215Y and 2 TAMs and H208X; assay: PhenoSense resistance test vector assay, clinical isolates with T215Y and 2 TAMs and H208X; settings: share of samples designated hypersusceptible
Protocol: as §1, §2, §3

[8] = test system: HIV-1 NL4-3 SDM, K65R in reverse transcriptase; assay: NNRTI susceptibility of site-directed mutant (SDM) bearing only K65R in NL4-3 background; settings: mean+/-SD of 18 replicates, p<0.00001 versus reference
Protocol: as §1
as §2, with “By monitoring the amount of, e.g., luciferase activity in the presence of the varying amounts of antiviral drug(s), a resistance curve can be constructed by plotting luciferase activity versus drug concentration.” left out, “This number, the IC50, provides a standard and convenient measure of drug resistance.” left out
as §4, §5

[9] = test system: HIV-1, RT mutations: 184V; assay: PhenoSense resistance test vector assay, clinical isolates with 184V; settings: share of samples designated hypersusceptible
Protocol: as §1, §2, §3

[10] = test system: HIV-1, RT mutations: 3 NAMs; assay: PhenoSense resistance test vector assay, clinical isolates with 3 NAMs; settings: share of samples designated hypersusceptible
Protocol: as §1, §2, §3

| Compound | % IC50 0.4 fold < WT [1] [%] | % IC50 0.4 fold < WT [2] [%] | % IC50 0.4 fold < WT [3] [%] | FC (fold change in IC50) [4] | % IC50 0.4 fold < WT [5] [%] | % IC50 0.4 fold < WT [6] [%] | % IC50 0.4 fold < WT [7] [%] | FC (fold change in IC50) [8] | % IC50 0.4 fold < WT [9] [%] | % IC50 0.4 fold < WT [10] [%] |
| --- | --- | --- | --- | --- | --- | --- | --- | --- | --- | --- |
| CC(C)Nc1cccnc1N1CCN(C(=O)c2cc3cc(NS(C)(=O)=O)ccc3[nH]2)CC1 [DLV, delavirdine] | 15.7 | 4.9 | 13.2 | 0.68+/−0.06 | 30.1 | 13.2 | 90.9 | 0.54+/−0.03 | 12.3 | 12.8 |
| Cc1ccnc2c1NC(=O)c1cccnc1N2C1CC1 [NVP, nevirapine] | 36.9 | 8.1 | 20.8 | 0.59+/−0.06 | 39.8 | 18.0 | 9.1 | 0.53+/−0.05 | 16.3 | 17.9 |
| O=C1Nc2ccc(Cl)cc2[C@@](C#CC2CC2)(C(F)(F)F)O1 [EFV, efavirenz] | 31.0 | 4.2 | 19.8 | 0.67+/−0.02 | 39.8 | 17.8 | 54.5 | 0.56+/−0.02 | 16.9 | 28.2 |
